Reference: US20100261711A1, “SELECTIVE ANTICONVULSANT AGENTS AND THEIR USES” (WiSys Technology Foundation, priority 2009, published 2010)
Like-named read-outs stand apart in the source and are kept apart here.

What was measured:
MES-induced seizures [1] = conditions: Mice IP; from Antiepileptic Drugs, 5th ed., Levy et al., 2002; cited from earlier work
[2] = tested on: Metrazol-induced clonic seizures; conditions: Rat PO; from Antiepileptic Drugs, 5th ed., Levy et al., 2002; cited from earlier work
6 Hz psychomotor seizure = test: Minimal clonic seizure (6 Hz) test; assay type: in vivo; conditions: Mice IP, 32 mA
From the text: Like the maximal electroshock (MES) test, the minimal clonic seizure (6 Hz) test is used to assess a compound's efficacy against electrically-induced seizures but uses a lower frequency (6 Hz) and longer duration of stimulation (3 s). Test compounds are pre-administered to mice via ip injection. […] Untreated mice will display seizures characterized by a minimal clonic phase followed by stereotyped, automatistic behaviors described originally as being similar to the aura of human subjects with partial seizures. Animals not displaying this behavior are considered protected (Table 10).

MES-induced seizures [3] = conditions: Rat PO; from Antiepileptic Drugs, 5th ed., Levy et al., 2002; cited from earlier work
[4] = Toxicity (TOX), rotorod procedure, mice; assay type: in vivo; conditions: mouse, in vivo; IP route in mice (footnote of Table 10); read-out: TD50
Procedure: The benzodiazepine derivative compounds selective for GABAa receptor subunits were tested for the ability to suppress seizures in several standard rat and mouse models of epilepsy. […] The standard models incorporated into anticonvulsant screening include the maximal electroshock test (MES), the subcutaneous Metrazol test (scMet), and evaluations of toxicity (TOX). The data for each condition is presented as a ratio of either the number of animals protected or toxic (loss of locomotor activity) over the number of animals tested at a given time point and dose.
To assess a compound's undesirable side effects (toxicity), animals are monitored for overt signs of impaired neurological or muscular function. […] When a mouse is placed on a rod that rotates at a speed of 6 rpm, the animal can maintain its equilibrium for long periods of time. The animal is considered toxic if it falls off this rotating rod three times during a 1-min period. In rats, minimal motor deficit is indicated by ataxia, which is manifested by an abnormal, uncoordinated gait. Rats used for evaluating toxicity are examined before the test drug is administered, since individual animals may have peculiarities in gait, equilibrium, placing response, etc., which might be attributed erroneously to the test substance.

[5] = tested on: Metrazol-induced clonic seizures; conditions: Mice IP; from Antiepileptic Drugs, 5th ed., Levy et al., 2002; cited from earlier work
[6] = tested on: minimal muscular or neurological impairment; conditions: Mice IP; from Antiepileptic Drugs, 5th ed., Levy et al., 2002; cited from earlier work
[7] = tested on: minimal motor deficit (ataxia, abnormal gait); conditions: Rat PO; from Antiepileptic Drugs, 5th ed., Levy et al., 2002; cited from earlier work

Structure (SMILES)	ED50 MES (MES-induced seizures [1]) [mg/kg]	ED50 scMet [2] [mg/kg]	ED50 (6 Hz psychomotor seizure; Mus musculus, ip, read-out: ED50 32 mA (6 Hz test)) [mg/kg]	ED50 MES (MES-induced seizures [3]) [mg/kg]	TD50 [4] [mg/kg]	ED50 scMet [5] [mg/kg]	ED50 32 mA (6 Hz test) (6 Hz psychomotor seizure) [mg/kg]	TD50 TOX [6] [mg/kg]	TD50 TOX [7] [mg/kg]
NC(=O)N1c2ccccc2C=Cc2ccccc21 [Carbamazepine]	7.81	>250	> 40	5.35	41	>50			
O=C1CN=C(c2ccccc2Cl)c2cc([N+](=O)[O-])ccc2N1 [Clonazepan]	25.6	0.61		7.86		0.02	0.04	0.26	2.38
